≈ marks a conversion by molar mass, not a printed value. Where two headings read alike, the source gives them in different places.
Tests used:
[1] = test system: E. coli KL-16 (GSC strain 4245); experiment: In vitro antibacterial activity (MIC assay), broth microdilution; format: cell-based; details: Escherichia coli
Summary of the method: (§1)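 Bacteria at roughly 5×10^5 CFU/mL final were grown 16–24 h at 35° C in wells holding 2-fold serial dilutions (11 points) of compound prepared in 100% DMSO, following NCCLS M7-A5. MIC, in μg/mL, is the concentration that stops visible growth relative to untreated wells.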

S. aureus ATCC13709 = experiment: as above; format: cell-based; details: Staphylococcus aureus, ATCC13709; read-out: S. aureus ATCC13709 MIC
Summary of the method: as §1

S. pneumoniae ATCC49619 = experiment: as above; format: cell-based; details: Streptococcus pneumoniae, ATCC49619; read-out: S. pneumoniae ATCC49619 MIC
Summary of the method: as §1

E. coli DNA gyrase = target: T1, E. coli DNA gyrase (Escherichia coli, UniProt P0AES4+P0AES6); experiment: DNA gyrase inhibition assay (supercoiling); format: biochemical
T1 construct: purchased John Innes Enterprises Ltd. (John Innes Centre, UK)
T1 sequence (P0AES4 whole entry, one chain of several): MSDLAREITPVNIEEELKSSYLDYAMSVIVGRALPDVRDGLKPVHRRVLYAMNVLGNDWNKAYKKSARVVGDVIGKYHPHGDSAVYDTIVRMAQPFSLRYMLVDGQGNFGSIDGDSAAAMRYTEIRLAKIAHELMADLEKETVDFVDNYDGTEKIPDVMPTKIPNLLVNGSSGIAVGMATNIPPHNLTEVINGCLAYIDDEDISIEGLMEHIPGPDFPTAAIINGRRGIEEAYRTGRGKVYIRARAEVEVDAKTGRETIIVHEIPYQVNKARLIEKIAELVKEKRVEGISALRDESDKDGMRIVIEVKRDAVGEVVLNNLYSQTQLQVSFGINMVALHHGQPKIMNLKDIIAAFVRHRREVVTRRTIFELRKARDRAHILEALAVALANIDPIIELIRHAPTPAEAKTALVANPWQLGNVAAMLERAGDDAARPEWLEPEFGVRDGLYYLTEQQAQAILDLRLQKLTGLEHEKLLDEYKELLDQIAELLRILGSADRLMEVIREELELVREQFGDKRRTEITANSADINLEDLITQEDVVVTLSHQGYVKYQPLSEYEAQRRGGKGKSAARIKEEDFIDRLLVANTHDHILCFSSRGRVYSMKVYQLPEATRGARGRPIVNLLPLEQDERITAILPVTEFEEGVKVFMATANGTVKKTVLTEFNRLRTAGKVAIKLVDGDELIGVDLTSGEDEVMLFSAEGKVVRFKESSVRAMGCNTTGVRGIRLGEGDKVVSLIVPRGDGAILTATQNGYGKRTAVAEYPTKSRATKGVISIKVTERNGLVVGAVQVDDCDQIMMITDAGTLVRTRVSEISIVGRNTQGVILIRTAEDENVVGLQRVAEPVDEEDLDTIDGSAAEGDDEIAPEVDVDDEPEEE
Procedure: Inhibition of the supercoiling activity of E. coli DNA gyrase was determined using enzymes, buffers and substrates received from John Innes Enterprises Ltd. (John Innes Centre, UK). The reactions were performed according to the manufacturer's directions, with the following modifications.
DNA supercoiling reactions were carried out in a total reaction volume of 20 μL containing 250 ng of relaxed pBR322, 35 mM Tris-HCl (pH 7.5), 24 mM KCl, 4 mM MgCl2, 2 mM dithiothreitol, 1.8 mM spermidine, 1 mM ATP, 6.5% glycerol and 100 μg/mL albumin. Compounds diluted in 10% DMSO were added to the reaction mixture to reach a final concentration of 0.5% DMSO. Enzyme was diluted to […] in a solution of 50 mM Tris-HCl (pH 7.5), 100 mM KCl, 2 mM dithiothreitol, 1 mM EDTA, and 50% glycerol. Diluted enzyme (0.2 unit) was added to each reaction.
The reactions were incubated at 37° C. for 30 min. The reactions were then cooled to 0° C., followed by addition of 3 μL of 40% glycerol, 100 mM Tris-HCl (pH 7.5), 50 mM EDTA, 0.5% SDS and 0.1% bromophenol blue. Samples were separated on 1.0% agarose gels. Gels were stained with Ethidium bromide and photographed with a Stratagene Eagle Eye II.

[2] = E. coli DNA gyrase supercoiling, visual inspection of gels, read-out: DNA Gyrase IC50 (converted)

SMILES	MIC [1]	MIC (S. aureus ATCC13709)	MIC (S. pneumoniae ATCC49619)	IC50 (E. coli DNA gyrase; [2])	IC50 (E. coli DNA gyrase)
COc1ccc2nccc(-n3cc4c(n3)CCC(NC(=O)/C=C/c3cc(F)ccc3C(F)(F)F)C4)c2n1 (centres unmarked) [Example 91, 3-(5-Fluoro-2-trifluoromethyl-phenyl)-N-[2-(6-methoxy-[1,5]naphthyridin-4-yl)-4,5,6,7-tetrahydro-2H-indazol-5-yl]-acrylamide]	> 128 µg/mL	4 µg/mL (≈ 7.82 µM)	> 128 µg/mL	> 31.3 µM	–
COc1ccc2nccc(-n3cc4c(n3)CCC(NC(=O)c3cc5cc(C)ccc5[nH]3)C4)c2c1 (centres unmarked) [Example 75, 5-Methyl-1H-indole-2-carboxylic acid [2-(6-methoxy-quinolin-4-yl)-4,5,6,7-tetrahydro-2H-indazol-5-yl]-amide]	> 128 µg/mL	4 µg/mL (≈ 8.86 µM)	16 µg/mL (≈ 35.4 µM)	> 35.4 µM	–
COc1ccc2nccc(-n3cc4c(n3)CCN(C(=O)c3ccc5c(c3)NC(=O)CS5)CC4)c2n1 [Example 15, 6-[2-(6-Methoxy-[1,5]naphthyridin-4-yl)-4,5,7,8-tetrahydro-2H-1,2,6-triaza-azulene-6-carbonyl]-4H-benzo[1,4]thiazin-3-one]	> 128 µg/mL	1 µg/mL (≈ 2.06 µM)	16 µg/mL (≈ 32.9 µM)	> 65.8 µM	–
COc1ccc2nccc(-n3cc4c(n3)CCC(NC(=O)c3cc5ccccc5o3)C4)c2c1 (centres unmarked) [Example 25, Benzofuran-2-carboxylic acid [2-(6-methoxy-quinolin-4-yl)-4,5,6,7-tetrahydro-2H-indazol-5-yl]-amide]	> 128 µg/mL	1 µg/mL (≈ 2.28 µM)	8 µg/mL (≈ 18.2 µM)	> 36.5 µM	–
COc1ccc2nccc(-n3cc4c(n3)CCC(NC(=O)c3cc5ccccc5[nH]3)C4)c2c1 (centres unmarked) [Example 21, 1H-Indole-2-carboxylic acid [2-(6-methoxy-quinolin-4-yl)-4,5,6,7-tetrahydro-2H-indazol-5-yl]-amide]	> 128 µg/mL	1 µg/mL (≈ 2.29 µM)	8 µg/mL (≈ 18.3 µM)	> 36.6 µM	–
COc1ccc2nccc(-n3cc4c(n3)CCC(NCC(=O)Nc3cc(F)cc(F)c3)C4)c2c1 (centres unmarked) [Example 61, N-(3,5-Difluoro-phenyl)-2-[2-(6-methoxy-quinolin-4-yl)-4,5,6,7-tetrahydro-2H-indazol-5-ylamino]-acetamide]	16 µg/mL (≈ 34.5 µM)	0.5 µg/mL (≈ 1.08 µM)	8 µg/mL (≈ 17.3 µM)	4.32 µM	–
COc1ccc2nccc(-n3cc4c(n3)CCC(NCc3ccc(N5CCCCC5)cc3)C4)c2n1 (centres unmarked) [Example 86, [2-(6-Methoxy-[1,5]naphthyridin-4-yl)-4,5,6,7-tetrahydro-2H-indazol-5-yl]-(4-piperidin-1-yl-benzyl)-amine]	> 128 µg/mL	4 µg/mL (≈ 8.54 µM)	4 µg/mL (≈ 8.54 µM)	4.27 µM	–
COc1ccc2nccc(-n3cc4c(n3)CCC(N(CC(=O)OC(C)(C)C)Cc3ccc5c(c3)NC(=O)CS5)C4)c2n1 (centres unmarked) [Example 67, [[2-(6-Methoxy-[1,5]naphthyridin-4-yl)-4,5,6,7-tetrahydro-2H-indazol-5-yl]-(3-oxo-3,4-dihydro-2H-benzo[1,4]thiazin-6-ylmethyl)-amino]-acetic acid tert-butyl ester]	> 128 µg/mL	4 µg/mL (≈ 6.82 µM)	64 µg/mL (≈ 109 µM)	> 13.6 µM	–
COc1ccc2nccc(-n3cc4c(n3)CCC(NC(=O)c3cc5c(F)cc(F)cc5[nH]3)C4)c2n1 (centres unmarked) [Example 7, 4,6-Difluoro-1H-indole-2-carboxylic acid [2-(6-methoxyl-[1,5]naphthyridin-4-yl)-4,5,6,7-tetrahydro-2H-indazol-5-yl]-amide]	> 128 µg/mL	0.25 µg/mL (≈ 0.527 µM)	> 128 µg/mL	4.22 µM	–
COc1ccc2nccc(-n3ncc4c3CCC(NC(=O)c3cc5c(cc3F)SCC(=O)N5)C4)c2c1 (centres unmarked) [Example 19, 7-Fluoro-3-oxo-3,4-dihydro-2H-benzo[1,4]thiazine-6-carboxylic acid [1-(6-methoxy-quinolin-4-yl)-4,5,6,7-tetrahydro-1H-indazol-5-yl]-amide]	> 128 µg/mL	0.5 µg/mL (≈ 0.993 µM)	8 µg/mL (≈ 15.9 µM)	> 63.5 µM	–
COc1ccc2nccc(-n3cc4c(n3)CCC(NC(=O)/C=C/c3cccc(Cl)c3)C4)c2n1 (centres unmarked) [Example 12, 3-(3-Chloro-phenyl)-N-[2-(6-methoxy-[1,5]naphthyridin-4-yl)-4,5,6,7-tetrahydro-2H-indazol-5-yl]-acrylamide]	> 128 µg/mL	0.25 µg/mL (≈ 0.544 µM)	8 µg/mL (≈ 17.4 µM)	4.35 µM	–
COc1ccc2nccc(-n3cc4c(n3)CCC(NCc3cc5c(cc3F)OCCO5)C4)c2n1 (centres unmarked) [Example 43, (7-Fluoro-2,3-dihydro-benzo[1,4]dioxin-6-ylmethyl)-[2-(6-methoxy-[1,5]naphthyridin-4-yl)-4,5,6,7-tetrahydro-2H-indazol-5-yl]-amine]	16 µg/mL (≈ 34.7 µM)	> 0.125 µg/mL	1 µg/mL (≈ 2.17 µM)	1.08 µM	–
COc1ccc2nccc(-n3cc4c(n3)CCC(NCc3ccc(N5CCCC5)cc3)C4)c2n1 (centres unmarked) [Example 87, [2-(6-Methoxy-[1,5]naphthyridin-4-yl)-4,5,6,7-tetrahydro-2H-indazol-5-yl]-(4-pyrrolidin-1-yl-benzyl)-amine]	64 µg/mL (≈ 141 µM)	2 µg/mL (≈ 4.4 µM)	8 µg/mL (≈ 17.6 µM)	4.4 µM	–
COc1ccc2nccc(-n3cc4c(n3)CCC(NC(=O)c3cc5cc(F)c(F)cc5[nH]3)C4)c2c1 (centres unmarked) [Example 74, 5,6-Difluoro-1H-indole-2-carboxylic acid [2-(6-methoxy-quinolin-4-yl)-4,5,6,7-tetrahydro-2H-indazol-5-yl]-amide]	> 128 µg/mL	1 µg/mL (≈ 2.11 µM)	8 µg/mL (≈ 16.9 µM)	4.22 µM	–
O=C1CSc2ccc(CNC3CCc4c(cnn4-c4cc(C(F)(F)F)nc5ccccc45)C3)cc2N1 (centres unmarked) [Example 139, 6-{[1-(2-Trifluoromethyl-quinolin-4-yl)-4,5,6,7-tetrahydro-1H-indazol-5-ylamino]-methyl}-4H-benzo[1,4]thiazin-3-one]	> 128 µg/mL	8 µg/mL (≈ 15.7 µM)	32 µg/mL (≈ 62.8 µM)	> 31.4 µM	–
COc1ccc2nccc(-n3cc4c(n3)CCC(NCCCc3ccccc3)C4)c2n1 (centres unmarked) [Example 45, [2-(6-Methoxy-[1,5]naphthyridin-4-yl)-4,5,6,7-tetrahydro-2H-indazol-5-yl]-(3-phenyl-propyl)-amine]	128 µg/mL (≈ 310 µM)	0.25 µg/mL (≈ 0.605 µM)	< 0.125 µg/mL	1.93 µM	–
COc1ccc2nccc(-n3cc4c(n3)CCC(NCc3cc5c(cc3F)SCCN5)C4)c2c1 (centres unmarked) [Example 106]	8 µg/mL (≈ 16.8 µM)	0.5 µg/mL (≈ 1.05 µM)	1 µg/mL (≈ 2.1 µM)	–	4.21 µM
COc1ccc2nccc(-n3cc4c(n3)CCC(NC(=O)c3ccc5c(c3)N(C)C(=O)CS5)C4)c2n1 (centres unmarked) [Example 69, 4-Methyl-3-oxo-3,4-dihydro-2H-benzo[1,4]thiazine-6-carboxylic acid [2-(6-methoxy-[1,5]naphthyridin-4-yl)-4,5,6,7-tetrahydro-2H-indazol-5-yl]-amide]	> 128 µg/mL	4 µg/mL (≈ 7.99 µM)	64 µg/mL (≈ 128 µM)	> 7.99 µM	–
COc1ccc2nccc(-n3cc4c(n3)CCC(NC(=O)c3nc5ccccc5[nH]3)C4)c2n1 (centres unmarked) [Example 8, 1H-Benzoimidazole-2-carboxylic acid [2-(6-methoxy-[1,5]naphthyridin-4-yl)-4,5,6,7-tetrahydro-2H-indazol-5-yl]-amide]	> 128 µg/mL	0.25 µg/mL (≈ 0.569 µM)	4 µg/mL (≈ 9.1 µM)	> 36.4 µM	–
COc1ccc2nccc(-n3cc4c(n3)CCC(NCc3ccc(N(C)C)c(C#N)c3F)C4)c2n1 (centres unmarked) [Example 35, 6-Dimethylamino-2-fluoro-3-{[2-(6-methoxy-[1,5]naphthyridin-4-yl)-4,5,6,7-tetrahydro-2H-indazol-5-ylamino]-methyl}-benzonitrile]	> 128 µg/mL	< 0.125 µg/mL	1 µg/mL (≈ 2.12 µM)	4.24 µM	–
COc1ccc2nccc(-n3cc4c(n3)CCC(NC(=O)/C=C/c3ccc(Cl)cc3)C4)c2n1 (centres unmarked) [Example 90, 3-(4-Chloro-phenyl)-N-[2-(6-methoxy-[1,5]naphthyridin-4-yl)-4,5,6,7-tetrahydro-2H-indazol-5-yl]-acrylamide]	> 128 µg/mL	0.5 µg/mL (≈ 1.09 µM)	> 128 µg/mL	> 34.8 µM	–
COc1ccc2nccc(-n3cc4c(n3)CCC(NC(=O)c3cc5cc(Cl)ccc5[nH]3)C4)c2c1 (centres unmarked) [Example 77, 5-Chloro-1H-indole-2-carboxylic acid [2-(6-methoxy-quinolin-4-yl)-4,5,6,7-tetrahydro-2H-indazol-5-yl]-amide]	> 128 µg/mL	2 µg/mL (≈ 4.24 µM)	16 µg/mL (≈ 33.9 µM)	> 33.9 µM	–
O=C1CSc2cc(F)c(C(=O)NC3CCc4nn(-c5cccc6ccccc56)cc4C3)cc2N1 (centres unmarked) [Example 33, 7-Fluoro-3-oxo-3,4-dihydro-2H-benzo[1,4]thiazine-6-carboxylic acid (2-naphthalen-1-yl-4,5,6,7-tetrahydro-2H-indazol-5-yl)-amide]	> 128 µg/mL	1 µg/mL (≈ 2.12 µM)	8 µg/mL (≈ 16.9 µM)	4.23 µM	–

Source: patent US8242275B2, “Bicyclic pyrazole compounds as antibacterial agents” (Janssen Pharmaceutica NV, priority 2005, dated 2012)
